Here are results for two molecules from a compilation of properties of binary mixtures (doi:10.1016/j.molliq.2017.06.010).

The nature of this data set: xn = mol fraction of the nth substance listed. The following applies: 303.15 K, 100 kPa.

The term speed of sound denotes the propagation velocity of pressure waves in the medium. As a reminder, the viscosity is the resistance of a fluid to flow. High values mean a thick fluid, low ones a thin fluid. On to `CCC(=O)[O-].OCC[NH2+]c1ccccc1` + O, for which the electrical conductivity runs as follows: (x2 = 0.015) 0.0004 S/m; (x2 = 0.0341) 0.0004 S/m; (x2 = 0.0417) 0.0004 S/m; (x2 = 0.0546) 0.0004 S/m. The speed of sound by setting is: (x2 = 0.015) 1522.1 m/s; (x2 = 0.0341) 1524.3 m/s; (x2 = 0.0417) 1525.3 m/s; (x2 = 0.0546) 1526.8 m/s. Also, the viscosity runs as follows: (x2 = 0.015) 16.6 mPa·s; (x2 = 0.0341) 15.2 mPa·s; (x2 = 0.0417) 14.7 mPa·s; (x2 = 0.0546) 13.8 mPa·s.
With `CCCC(=O)[O-].OCC[NH2+]c1ccccc1` + O, the electrical conductivity came out at 0.0005 S/m (x2 = 0.016), 0.0005 S/m (x2 = 0.0386), 0.0005 S/m (x2 = 0.0546) and 0.0005 S/m (x2 = 0.0724). The speed of sound stood at 1508.9 m/s (x2 = 0.016), 1509.4 m/s (x2 = 0.0386), 1509.8 m/s (x2 = 0.0546) and 1510.4 m/s (x2 = 0.0724). The viscosity by setting is: (x2 = 0.016) 18.1 mPa·s; (x2 = 0.0386) 16.9 mPa·s; (x2 = 0.0546) 16.3 mPa·s; (x2 = 0.0724) 15.4 mPa·s.
